US7968526B2, “Antisense oligonucleotides directed to ribonucleotide reductase R2 and uses thereof in the treatment of cancer” (Lorus Therapeutics Inc., priority 2003, dated 2011)
Entries after “also recorded” stand apart in the source; their conditions may differ.

How the values were obtained:
[1] = 21-day continuous infusion toxicity study in the monkey with a 3-week recovery; type: in vivo
Protocol: A second repeat-dose study was conducted in monkeys to evaluate the toxicity associated with administration of test article by continuous intravenous infusion for 21 days followed by a 21-day recovery period. Twenty-eight monkeys were administered one of the following dose levels; vehicle control, 2 mg/kg/day, 10 mg/kg/day, or 50 mg/kg/day. Toxicokinetic samples were collected prior to the initiation of infusion, approximately 8, 24, 48, and 96 hours following the start of infusion, and on Day 20 prior to the change in dose-syringes. […] As in the previous rat study, the 2 mg/kg/day dose level was identified as the no-adverse-effect-level (NOAEL).

[2] = test system: A2058 human skin cancer cells; test: A2058 melanoma growth in CD-1 nude mice (3.2); type: in vivo, human cells in mice
Protocol: Treatments lasted for 14 days thereafter. Antitumour activities were estimated by the inhibition of tumour volume, which was measured with a caliper on four different occasions over the treatment period. Each point represents mean tumour volume calculated from 5 animals per experimental group. […] Control animals (control) received saline alone for the same period. At the end of the treatments, the animals were sacrificed, tumours were excised and their weights were measured. Each bar represents mean tumour weight calculated from 6 animals per experimental group. […] Treatments lasted for 24 days thereafter. Antitumour activities were estimated by the inhibition of tumour volume, which was measured with a caliper at two-day intervals over the treatment period. Each point represents mean tumour volume calculated from 4 animals per experimental group. […] Treatments lasted for 24 days thereafter. Antitumour activities were estimated by the inhibition of tumour volume, which was measured with a caliper at two-day intervals over the treatment period. Each point represents mean tumour volume calculated from 4 animals per experimental group. […] Each point represents mean tumour volume calculated from 5 animals per experimental group. […] Antitumour activities were estimated by the inhibition of tumour volume, which was measured with a caliper on four different occasions over 16-day period. […]

[3] = test system: C8161 human melanoma cells; test: Experimental metastasis of C8161 cells treated ex vivo, lung nodules in CD-1 nude mice (4.2); set-up: species or system human cells in mice
Protocol: • 4.1 Experimental metastasis of mouse fibrosarcoma (R3) cells treated with different antisense oligonucleotides in a syngenetic model was estimated as follows. Aliquots of R3 cell suspension were seeded into 100 mm tissue culture dishes at a density of 2×10^6 and incubated overnight at 37° C. in α-MEM medium supplemented with 10% FBS. Cells were washed once in 10 ml of PBS and treated with 0.2 μM of SEQ ID NO: 1 in the presence of cationic lipid (Lipofectin reagent, final concentration, 10 μg/ml, Gibco BRL) for 4 hr. Cells were treated with either saline alone (C) or lipofectin alone (RE) as controls. Oligonucleotide was removed by washing the cells once with PBS and the cells were trypsinized. Cells were then collected by centrifugation, and approximately 1×10^5 cells suspended in 0.2 ml of PBS were injected into the tail veins of 10 week-old C3H female mice. Estimates of the number of lung tumours were made 20 days later, after excised lungs from individual mice were stained with picric acid dye solution (75% picric acid, 20% formaldehyde, 5% glacial acetic acid). Bars represent mean number of tumour nodules in lungs obtained from 4 to 5 animals per experimental group. […] Aliquots of C8161 cell suspension were seeded into 100 mm tissue culture dishes at a density of 2×10^6 and incubated overnight at 37° C. in α-MEM medium supplemented with 10% FBS. […]

[4] = test system: Caki-1 human renal cancer cells; test: Caki-1 renal tumour xenograft, combination with 5-FU or vinblastin (1.3); type: in vivo, human cells in mice
From the text: All treatments were stopped at day 22. […] All treatments were stopped at day 32. […] All treatments were stopped at day 36.

[5] = test system: HT-29 human colon cancer cells; test: HT-29 colon tumour growth in CD-1 nude mice, SEQ ID NO:1 alone (3.1); type: in vivo, human cells in mice
Protocol: Treatments lasted for 14 days thereafter. Antitumour activities were estimated by the inhibition of tumour volume, which was measured with a caliper on four different occasions over the treatment period. Each point represents mean tumour volume calculated from 5 animals per experimental group. […] Control animals (control) received saline alone for the same period. At the end of the treatments, the animals were sacrificed, tumours were excised and their weights were measured. Each bar represents mean tumour weight calculated from 6 animals per experimental group. […] Treatments lasted for 24 days thereafter. Antitumour activities were estimated by the inhibition of tumour volume, which was measured with a caliper at two-day intervals over the treatment period. Each point represents mean tumour volume calculated from 4 animals per experimental group. […] Treatments lasted for 24 days thereafter. Antitumour activities were estimated by the inhibition of tumour volume, which was measured with a caliper at two-day intervals over the treatment period. Each point represents mean tumour volume calculated from 4 animals per experimental group. […] Treatments lasted for 22 days thereafter. […] Each point represents mean tumour volume calculated from 5 animals per experimental group. […] Treatments lasted for 14 days thereafter. Antitumour activities were estimated by the inhibition of tumour volume, which was measured with a caliper on four different occasions over 16-day period. Each point represents mean tumour volume calculated from 5 animals per experimental group. […] Two different batches of SEQ ID NO:1, synthesized at different times (designated as batch 1 and batch 2), were tested to detect possible batch-specific effects. […] Treatments lasted for 34 days thereafter. Antitumour activities were estimated by the inhibition of tumour volume, which was measured with a caliper at two-day intervals over the treatment period. Each point represents mean tumour volume calculated from 5 animals per experimental group. […] Treatments lasted for 30 days thereafter. Antitumour activities were estimated by the inhibition of tumour volume, which was measured with a caliper at various time intervals over the span of 30 days. Each point represents mean tumour volume calculated from 6 animals per experimental group. […] All treatments were stopped at day 36. Antitumour activities were estimated by the inhibition of tumour volume, which was measured with a caliper. Each point represents mean tumour volume calculated from 5 animals per experimental group. […] All treatments were stopped at day 52. Mice treated with saline or one of the three chemotherapeutic agents were sacrificed at day 80 because the tumour became too large. Mice treated with SEQ ID NO:1 were kept for 16 days further to observe possible resurgence of resistant tumour growth. Antitumour activities were estimated by the inhibition of tumour volume, which was measured with a caliper.

[6] = test system: mouse fibrosarcoma (R3) cells; test: Experimental metastasis of R3 cells treated ex vivo, lung nodules in C3H mice (4.1); settings: for Formation of lung colonies / nodules: R3 cells treated with 0.2 μM + Lipofectin for 4 hr before i.v. injection into C3H mice
Protocol: • 4.1 Experimental metastasis of mouse fibrosarcoma (R3) cells treated with different antisense oligonucleotides in a syngenetic model was estimated as follows. Aliquots of R3 cell suspension were seeded into 100 mm tissue culture dishes at a density of 2×10^6 and incubated overnight at 37° C. in α-MEM medium supplemented with 10% FBS. Cells were washed once in 10 ml of PBS and treated with 0.2 μM of SEQ ID NO: 1 in the presence of cationic lipid (Lipofectin reagent, final concentration, 10 μg/ml, Gibco BRL) for 4 hr. Cells were treated with either saline alone (C) or lipofectin alone (RE) as controls. Oligonucleotide was removed by washing the cells once with PBS and the cells were trypsinized. Cells were then collected by centrifugation, and approximately 1×10^5 cells suspended in 0.2 ml of PBS were injected into the tail veins of 10 week-old C3H female mice. Estimates of the number of lung tumours were made 20 days later, after excised lungs from individual mice were stained with picric acid dye solution (75% picric acid, 20% formaldehyde, 5% glacial acetic acid). Bars represent mean number of tumour nodules in lungs obtained from 4 to 5 animals per experimental group. […] Aliquots of C8161 cell suspension were seeded into 100 mm tissue culture dishes at a density of 2×10^6 and incubated overnight at 37° C. in α-MEM medium supplemented with 10% FBS. Cells were washed once in 10 ml of PBS and treated with 0.2 μM of SEQ ID NO: 1 in the presence of cationic lipid (Lipofectin reagent, final concentration, 10 μg/ml, Gibco BRL) for 4 hr. Cells were treated with lipofectin alone (CONTROL) as a control. SEQ ID NO:1 was removed by washing the cells once with PBS and the cells were trypsinized. Cells were then collected by centrifugation, and approximately 1×10^5 cells suspended in 0.2 ml of PBS were injected into the tail veins of 6-8 week-old CD-1 athymic female nude mice. Estimates of the number of lung tumours were made 4 weeks later, after excised lungs from individual mice were stained with picric acid dye solution (75% picric acid, 20% formaldehyde, 5% glacial acetic acid). […]

[7] = test system: HeLa S3 human cervical cancer cells; test: HeLa S3 cervical tumour growth in SCID mice (3.11); type: in vivo, human cells in mice
Protocol: Treatments lasted for 14 days thereafter. Antitumour activities were estimated by the inhibition of tumour volume, which was measured with a caliper on four different occasions over the treatment period. Each point represents mean tumour volume calculated from 5 animals per experimental group. […] Control animals (control) received saline alone for the same period. At the end of the treatments, the animals were sacrificed, tumours were excised and their weights were measured. Each bar represents mean tumour weight calculated from 6 animals per experimental group. […] Treatments lasted for 24 days thereafter. Antitumour activities were estimated by the inhibition of tumour volume, which was measured with a caliper at two-day intervals over the treatment period. Each point represents mean tumour volume calculated from 4 animals per experimental group. […] Treatments lasted for 24 days thereafter. Antitumour activities were estimated by the inhibition of tumour volume, which was measured with a caliper at two-day intervals over the treatment period. Each point represents mean tumour volume calculated from 4 animals per experimental group. […] Each point represents mean tumour volume calculated from 5 animals per experimental group. […] Antitumour activities were estimated by the inhibition of tumour volume, which was measured with a caliper on four different occasions over 16-day period. Each point represents mean tumour volume calculated from 5 animals per experimental group. […] Antitumour activities were estimated by the inhibition of tumour volume, which was measured with a caliper at two-day intervals over the treatment period. Each point represents mean tumour volume calculated from 5 animals per experimental group. […] Antitumour activities were estimated by the inhibition of tumour volume, which was measured with a caliper at various time intervals over the span of 30 days. Each point represents mean tumour volume calculated from 6 animals per experimental group. […] Antitumour activities were estimated by the inhibition of tumour volume, which was measured with a caliper. […]

[8] = continuous i.v. infusion 21 days
[9] = Human Cervical Carcinoma^2 in SCID mice, Day 17 after tumour implantation

5′-GGCTAAATCGCTCCACCAAG-3′ (all phosphorothioate, sugars by position and methylation of C not given here) [SEQ ID NO: 1, fully phosphorothioated antisense oligonucleotide that hybridizes to the coding region of R2 mRNA]
Deaths ([1]; 2, 10 or 50 mg/kg/day continuous i.v. infusion 21 days): No unplanned deaths | Reversibility of changes ([1]; 3-week post-dosing treatment-free period): reversed either completely or partially | Toxicity findings ([1]; 10 and 50 mg/kg/day continuous i.v. infusion 21 days): splenic histiocytosis, anticoagulant effects, complement activation, and continuous infusion effects | Target organs (histopathologic changes) [1, 8]: kidneys, liver, and lymph nodes | no-adverse-effect-level (NOAEL) [1, 8]: 2 mg/kg/day | Inhibitory effect on tumour growth (tumour volume, FIG. 18A) ([2]; A2058, CD-1 nude mice, 10 mg/kg i.v. every other day, 24 days): strong inhibitory effects on the growth of human melanoma | Inhibition of tumour weight ([2]; Human Melanoma): ~80% | Formation of lung colonies / nodules ([3]; C8161 cells treated with 0.2 μM + Lipofectin for 4 hr before i.v. injection into CD-1 nude mice): significantly reduced the formation of lung colonies; also recorded: significantly reduces the extent of lung nodule formation | Decrease in the number of tumour metastases to lungs ([3]; Human Melanoma (ex vivo and in vivo)): Decrease by approximately 95% in the number | Tumour weight as % of saline control ([4]; Caki (renal), CD-1 mouse as printed, SEQ ID NO:1 10 mg/kg i.v. every other day, 5-FU 13 mg/kg/day i.p., vinblastin 0.6 mg/kg/week i.p.): 3.3% | Antitumour effect (tumour weight, FIG. 3A) ([4]; Caki-1, SCID mice, SEQ ID NO:1 10 mg/kg i.v. every other day, 5-FU 13 mg/kg/day i.p., vinblastin 0.6 mg/kg/week i.p.): significant delay of tumour growth compared to saline control; also recorded: superior to the inhibitory effects observed with each of two chemotherapeutic compounds | Inhibition of tumour size ([4]; Human Renal Carcinoma^2 (second entry of Table 5)): Approximately 97% inhibition of tumour size | Inhibitory effect on tumour growth (tumour volume, FIG. 17A) ([5]; HT-29, CD-1 nude mice, 10 mg/kg i.v. every other day, 14 days): statistically significant inhibitory effects | Inhibitory effect on tumour growth (tumour weight, FIG. 17B) ([5]; HT-29, CD-1 nude mice, 0.4-6.0 mg/kg i.v. every other day for 14 days): statistically significant inhibitory effects on the growth of human colon adenocarcinoma in a dose-dependent manner | Inhibition of tumour weight ([5]; Human Colon Adenocarcinoma): ~80% | Inhibition of tumour size ([5]; Human Colon Adenocarcinoma in CD-1 nude mice, Day 18 after tumour implantation): approximately 80% on Day 18 after tumour | Dose dependence of tumour weight ([5]; in vivo): Dose-dependent decrease in tumour weight in | Decrease in the number of tumour metastases to lungs ([6]; Mouse Fibrosarcoma (ex vivo)): Decrease by approximately 65% in the number | Formation of lung colonies / nodules [6]: significantly reduced the formation of lung colonies | Formation of lung colonies / nodules ([6]; listed as SEQ ID NO:1): significantly reduces the extent of lung nodule formation | Inhibitory effect on tumour growth (tumour volume and weight, FIG. 23) ([7]; HeLa S3, SCID mice, 10 mg/kg i.v. every other day, 14 days): strong inhibitory effects on the growth of human cervical carcinoma | Inhibition of tumour size [7, 9]: approximately 60% in SCID mice on Day 17fter | Inhibition of tumour weight [7, 9]: approximately 60% in SCID mice on Day 17fter
